Patent US9802941B2, “Compounds and methods for inhibiting histone demethylases” (Gilead Sciences, Inc., priority 2014, dated 2017)
Like-named read-outs stand apart in the source and are kept apart here.

Tests used:
Assay type in all cases: biochemical
KDM5B (PLU-1) = target: T1, KDM5B (PLU-1) (Homo sapiens, UniProt Q9UGL1); experiment: Histone lysine demethylase AlphaLISA assay, KDM5B
T1 construct: BRIC; 1-809; E. coli; host or cells: E. coli
T1 sequence (Q9UGL1 1-809): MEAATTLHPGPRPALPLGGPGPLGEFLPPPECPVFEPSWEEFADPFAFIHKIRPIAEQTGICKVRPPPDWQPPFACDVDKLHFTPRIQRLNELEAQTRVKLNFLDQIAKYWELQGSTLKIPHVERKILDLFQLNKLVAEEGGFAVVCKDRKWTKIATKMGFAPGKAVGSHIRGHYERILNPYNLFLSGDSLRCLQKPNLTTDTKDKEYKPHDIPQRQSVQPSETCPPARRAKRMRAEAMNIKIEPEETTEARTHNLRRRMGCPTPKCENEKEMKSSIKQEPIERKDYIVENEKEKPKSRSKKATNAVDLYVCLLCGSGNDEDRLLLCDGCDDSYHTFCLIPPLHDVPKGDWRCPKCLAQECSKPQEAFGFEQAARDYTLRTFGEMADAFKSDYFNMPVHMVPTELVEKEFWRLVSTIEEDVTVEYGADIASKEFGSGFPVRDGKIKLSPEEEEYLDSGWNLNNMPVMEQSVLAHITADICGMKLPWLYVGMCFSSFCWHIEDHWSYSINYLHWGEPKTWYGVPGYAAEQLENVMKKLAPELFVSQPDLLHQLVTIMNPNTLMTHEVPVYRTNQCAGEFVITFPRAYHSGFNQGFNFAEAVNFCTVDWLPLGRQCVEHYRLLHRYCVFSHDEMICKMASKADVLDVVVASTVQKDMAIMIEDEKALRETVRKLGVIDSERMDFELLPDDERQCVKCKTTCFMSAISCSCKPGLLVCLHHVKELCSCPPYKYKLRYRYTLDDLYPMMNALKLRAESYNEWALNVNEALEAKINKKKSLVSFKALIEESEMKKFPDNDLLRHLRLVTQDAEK
How it was run: (§1)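 Steps: enzyme in Hepes buffer with 5 μM Fe(II) and 0.1% BSA; add to DMSO compound; incubate 10 minutes; add substrate, incubate at RT; add acceptor beads, then streptavidin donor beads; incubate in dark; read AlphaLISA.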

PHF8 (KDM7) = target: T2, PHF8 (KDM7) (Homo sapiens, UniProt Q9UPP1); experiment: Histone lysine demethylase AlphaLISA assay, PHF8
T2 construct: KDM7 (PHF8); BRIC; 1-1322; Bac
How it was run: as §1

KDM4C (JMJD2C) = target: T3, KDM4C (JMJD2C) (Homo sapiens, UniProt Q9H3R0); experiment: Histone lysine demethylase AlphaLISA assay, KDM4C
T3 construct: KDM4C; BRIC, Denmark; 1-349; E. coli; host or cells: E. coli
T3 sequence (Q9H3R0 1-349): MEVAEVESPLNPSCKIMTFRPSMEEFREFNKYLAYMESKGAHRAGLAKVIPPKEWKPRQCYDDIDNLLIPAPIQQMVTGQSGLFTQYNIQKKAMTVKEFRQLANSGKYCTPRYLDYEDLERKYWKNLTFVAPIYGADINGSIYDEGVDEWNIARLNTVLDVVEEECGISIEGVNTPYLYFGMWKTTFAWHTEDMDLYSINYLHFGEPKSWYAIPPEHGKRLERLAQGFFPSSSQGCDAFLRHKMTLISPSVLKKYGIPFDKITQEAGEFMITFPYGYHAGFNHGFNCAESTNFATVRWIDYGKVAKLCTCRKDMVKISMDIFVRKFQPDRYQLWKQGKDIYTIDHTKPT
How it was run: as §1

KDM2B (FBXL10) = target: T4, KDM2B (FBXL10) (Homo sapiens, UniProt Q8NHM5); experiment: Histone lysine demethylase AlphaLISA assay, KDM2B; conditions: AlphaLISA, in vitro; read-out: HDME Inhibition KDM2B
T4 construct: KDM2B; BPS,; 1-650; Bac; purchased BPS Bioscience, US; host or cells: baculovirus system
T4 sequence (Q8NHM5 1-650): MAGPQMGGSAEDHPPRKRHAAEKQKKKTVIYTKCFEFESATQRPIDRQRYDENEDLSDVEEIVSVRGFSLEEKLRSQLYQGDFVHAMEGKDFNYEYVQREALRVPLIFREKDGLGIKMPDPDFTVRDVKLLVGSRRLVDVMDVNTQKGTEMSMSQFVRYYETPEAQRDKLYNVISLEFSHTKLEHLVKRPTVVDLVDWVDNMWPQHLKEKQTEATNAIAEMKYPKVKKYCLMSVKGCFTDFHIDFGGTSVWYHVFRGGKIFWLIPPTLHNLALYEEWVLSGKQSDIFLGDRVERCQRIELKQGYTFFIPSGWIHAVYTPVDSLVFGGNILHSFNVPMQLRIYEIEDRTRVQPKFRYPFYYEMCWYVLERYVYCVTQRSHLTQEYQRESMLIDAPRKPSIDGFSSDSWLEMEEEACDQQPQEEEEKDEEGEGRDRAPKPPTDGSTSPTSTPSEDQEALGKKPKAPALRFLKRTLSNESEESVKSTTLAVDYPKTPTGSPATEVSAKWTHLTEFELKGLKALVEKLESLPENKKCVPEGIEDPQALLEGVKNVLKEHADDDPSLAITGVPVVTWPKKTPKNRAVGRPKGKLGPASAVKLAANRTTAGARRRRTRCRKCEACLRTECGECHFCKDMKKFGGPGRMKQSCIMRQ
How it was run: as §1

KDM6A (UTX) = target: T5, KDM6A (UTX) (Homo sapiens, UniProt O15550); experiment: Histone lysine demethylase AlphaLISA assay, KDM6A
T5 construct: KDM6A (UTX); BRIC; 919-1401; E. coli; host or cells: E. coli
Experimental: The compounds of the application, or a pharmaceutically acceptable salt, or solvate, or prodrug thereof, are tested in an in vitro AlphaLISA assay. Enzymes are dissolved in enzyme buffer and incubated before they are added to DMSO solutions of compounds of the application, or a pharmaceutically acceptable salt, or solvate, or prodrug thereof, in enzyme buffer. The reaction mixture is then incubated for an additional period of time before substrate solution is added and then the resulting mixture again incubated. Acceptor beads and suspended Epigenetic Buffer from stock are added and the suspension is again incubated before a suspension of streptavidin donor beads in Epigenetic Buffer is added. After an additional period of incubation, the plates are read.
The ability of compounds of the application to inhibit the histone lysine demethylase activity in vitro of different enzymes was determined.
The reaction mixture was incubated for another 10 minutes before 5 μL of substrate solution was added and the resulting mixture was then incubated at room temperature. […] After incubation at room temperature in the dark, the plates were read.
Enzyme Buffer: 50 mM Hepes (pH 7.4-8.0), 0.003-0.01% Tween-20, 0.1% BSA; 5 μM (NH4)2Fe(SO4)2.

[1] = AlphaLISA assay, read-out: HDME Inhibition KDM5B (IC50)
[2] = AlphaLISA, in vitro, read-out: HDME Inhibition KDM5B
[3] = AlphaLISA, in vitro, read-out: HDME Inhibition PHF8
[4] = AlphaLISA assay, read-out: HDME Inhibition KDM4C (IC50)
[5] = AlphaLISA, in vitro, read-out: HDME Inhibition KDM4C
[6] = AlphaLISA assay, read-out: HDME Inhibition KDM6A (IC50)
[7] = AlphaLISA, in vitro, read-out: HDME Inhibition KDM6A
[8] = AlphaLISA assay, read-out: HDME Inhibition PHF8 (IC50)

T2 sequence (Q9UPP1 37-440 limits assumed): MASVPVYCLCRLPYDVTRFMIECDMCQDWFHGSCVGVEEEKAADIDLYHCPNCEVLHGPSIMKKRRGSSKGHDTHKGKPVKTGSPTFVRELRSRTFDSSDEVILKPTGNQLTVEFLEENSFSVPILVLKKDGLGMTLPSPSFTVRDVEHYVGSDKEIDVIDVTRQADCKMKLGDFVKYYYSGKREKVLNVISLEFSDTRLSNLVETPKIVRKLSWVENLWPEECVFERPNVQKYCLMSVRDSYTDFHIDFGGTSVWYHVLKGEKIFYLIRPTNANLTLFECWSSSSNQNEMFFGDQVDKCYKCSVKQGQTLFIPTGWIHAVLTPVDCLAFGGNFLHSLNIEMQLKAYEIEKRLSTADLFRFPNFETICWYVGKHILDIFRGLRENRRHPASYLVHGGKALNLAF
T5 sequence (O15550 919-1401): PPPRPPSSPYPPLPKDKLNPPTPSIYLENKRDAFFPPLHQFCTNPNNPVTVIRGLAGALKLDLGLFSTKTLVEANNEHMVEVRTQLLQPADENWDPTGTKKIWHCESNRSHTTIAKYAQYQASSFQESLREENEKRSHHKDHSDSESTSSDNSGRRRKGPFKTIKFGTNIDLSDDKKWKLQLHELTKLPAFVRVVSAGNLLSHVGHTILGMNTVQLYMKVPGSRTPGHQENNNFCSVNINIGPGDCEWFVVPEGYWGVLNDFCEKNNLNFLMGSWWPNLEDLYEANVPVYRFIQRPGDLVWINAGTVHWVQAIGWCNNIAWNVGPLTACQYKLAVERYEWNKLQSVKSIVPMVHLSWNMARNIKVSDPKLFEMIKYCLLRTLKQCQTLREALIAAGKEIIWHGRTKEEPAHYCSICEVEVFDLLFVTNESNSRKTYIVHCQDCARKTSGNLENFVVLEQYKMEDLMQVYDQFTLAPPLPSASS

Compound | IC50 (KDM5B (PLU-1); [1]) [µM] | IC50 (KDM5B (PLU-1); [2]) [µM] | IC50 (PHF8 (KDM7); [3]) [µM] | IC50 (KDM4C (JMJD2C); [4]) [µM] | IC50 (KDM4C (JMJD2C); [5]) [µM] | IC50 (KDM2B (FBXL10)) [µM] | IC50 (KDM6A (UTX); [6]) [µM] | IC50 (KDM6A (UTX); [7]) [µM] | IC50 (KDM5B (PLU-1)) [µM] | IC50 (PHF8 (KDM7); [8]) [µM]
Cc1cc(C(=O)O)cc(CNCc2nc3c(n2Cc2ccc(F)cc2)CCC3)n1 [Compound 25, 2-{[({1-[(4-fluorophenyl)methyl]-1H,4H,5H,6H-cyclopenta[d]imidazol-2-yl}methyl)amino]methyl}-6-methylpyridine-4-carboxylic acid] | > 10 | > 10 | 1.21 | > 10 | > 10 | 1.13 | > 10 | > 10 | – | –
Cc1cc(C(=O)O)cc(CNCc2nccn2CCc2cncnc2)n1 [Compound 26, 2-methyl-6-{[({1-[2-(pyrimidin-5-yl)ethyl]-1H-imidazol-2-yl}methyl)amino]methyl}pyridine-4-carboxylic acid] | – | – | 1.03 | > 10 | > 10 | 0.565 | > 10 | > 10 | 3.02 | –
CCc1nnc(CNCc2cc(C(=O)O)cc(C)n2)n1Cc1ccc(F)cc1 [Compound 27, 2-{[({5-Ethyl-4-[(4-fluorophenyl)methyl]-4H-1,2,4-triazol-3-yl}methyl)amino]methyl}-6-methylpyridine-4-carboxylic acid] | > 10 | > 10 | 0.537 | > 10 | > 10 | 0.158 | > 10 | > 10 | – | –
Cc1cc(C(=O)O)cc(CNCc2ncc(CCc3ccccc3)n2Cc2ccc(F)cc2)n1 [Compound 28, 2-{[({1-[(4-fluorophenyl)methyl]-5-(2-phenylethyl)-1H-imidazol-2-yl}methyl)amino]methyl}-6-methylpyridine-4-carboxylic acid] | > 10 | > 10 | 1.06 | > 10 | > 10 | 0.462 | > 10 | > 10 | – | –
Cc1cc(C(=O)O)cc(CNCc2nnc(Cc3ccccc3)n2Cc2ccc(F)cc2)n1 [Compound 29, 2-{[({5-benzyl-4-[(4-fluorophenyl)methyl]-4H-1,2,4-triazol-3-yl}methyl)amino]methyl}-6-methylpyridine-4-carboxylic acid] | > 10 | > 10 | 2.65 | > 10 | > 10 | 1.14 | > 10 | > 10 | – | –
CCC(C)Cc1cnc(CNCc2cc(C(=O)O)cc(C)n2)n1Cc1ccc(F)cc1 (centres unmarked) [Compound 30, 2-{[({1-[(4-fluorophenyl)methyl]-5-(2-methylbutyl)-1H-imidazol-2-yl}methyl)amino]methyl}-6-methylpyridine-4-carboxylic acid] | > 10 | > 10 | 2.22 | > 10 | > 10 | 0.703 | > 10 | > 10 | – | –
Cc1cc(C(=O)O)cc(CNCc2ncc(CCCc3ccccc3)n2Cc2ccc(F)cc2)n1 [Compound 31, 2-{[({1-[(4-fluorophenyl)methyl]-5-(3-phenylpropyl)-1H-imidazol-2-yl}methyl)amino]methyl}-6-methylpyridine-4-carboxylic acid] | > 10 | > 10 | > 10 | > 10 | > 10 | 3.97 | > 10 | > 10 | – | > 10
Cc1cc(C(=O)O)cc(CNCCc2ncccc2-c2ccsc2)n1 [Compound 34, 2-methyl-6-[({2-[3-(thiophen-3-yl)pyridin-2-yl]ethyl}amino)methyl]pyridine-4-carboxylic acid] | > 10 | > 10 | > 10 | > 10 | > 10 | 1.24 | > 10 | > 10 | – | > 10
C/C=C\c1cnc(CNCc2cc(C(=O)O)cc(C)n2)n1Cc1ccc(F)cc1 [Compound 35, 2-{[({1-[(4-fluorophenyl)methyl]-5-[(1Z)-prop-1-en-1-yl]-1H-imidazol-2-yl}methyl)amino]methyl}-6-methylpyridine-4-carboxylic acid] | > 10 | > 10 | 0.437 | > 10 | > 10 | 0.117 | > 10 | > 10 | – | –
CSc1nnc(CNCc2cc(C(=O)O)cc(C)n2)n1Cc1ccc(F)cc1 [Compound 36, 2-{[({4-[(4-fluorophenyl)methyl]-5-(methylsulfanyl)-4H-1,2,4-triazol-3-yl}methyl)amino]methyl}-6-methylpyridine-4-carboxylic acid] | > 10 | > 10 | 0.908 | > 10 | > 10 | 0.248 | > 10 | > 10 | – | –
Cc1cc(C(=O)O)cc(CNCc2nnc(C)n2Cc2ccc(F)cc2)n1 [Compound 37, 2-{[({4-[(4-Fluorophenyl)methyl]-5-methyl-4H-1,2,4-triazol-3-yl}methyl)amino]methyl}-6-methylpyridine-4-carboxylic acid] | > 10 | > 10 | 0.489 | > 10 | > 10 | 0.297 | > 10 | > 10 | – | –
